Laboratory results published in US20100029612A1, “2-Aminoethyl Substituted Pyrimidin-2-Ones Cyclopropanes, Pyrazolines, Pyrimidines and Benzothiazepines and Their Uses as Urotensin II and Somatostatin 5 Receptor Ligands” (priority 2003, published 2010).

How the values were obtained:
UII receptor = target: T1, UII receptor (Homo sapiens, UniProt Q9UKP6); assay: R-SAT functional mammalian cell-based agonist assay, UII receptor; settings: for selectivity UII versus SST5 receptor (in words): UII and SST5 receptors; for UII Eff.: agonist efficacy; for UII Eff. / UII pEC50 / EC50: transfected NIH3T3 cells; for UII pEC50 / EC50: agonist; for agonist activity at the UII receptor (in words): potency similar to AC-7954; for EC50: read-out: UII pEC50 (converted)
T1 construct: expressed in transfected cells; host or cells: NIH3T3 cells, receptor plasmid in PSI Mammalian Expression Vector (PROMEGA)
T1 sequence (Q9UKP6 1-389): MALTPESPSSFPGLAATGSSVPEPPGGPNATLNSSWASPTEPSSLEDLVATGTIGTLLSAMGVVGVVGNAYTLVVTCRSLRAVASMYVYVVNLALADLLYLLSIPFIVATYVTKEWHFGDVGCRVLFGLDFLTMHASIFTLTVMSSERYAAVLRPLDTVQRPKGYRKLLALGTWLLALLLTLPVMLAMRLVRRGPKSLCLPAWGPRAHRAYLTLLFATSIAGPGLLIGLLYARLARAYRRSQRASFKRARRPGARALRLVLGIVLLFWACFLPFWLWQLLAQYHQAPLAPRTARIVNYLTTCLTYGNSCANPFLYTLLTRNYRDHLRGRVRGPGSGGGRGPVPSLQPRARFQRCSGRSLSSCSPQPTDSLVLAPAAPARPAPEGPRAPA
Description: (§1) The compounds I to VI were tested as agonist at the UII and SST5 receptors in the functional mammalian cell-based assay R-SAT, described in U.S. Pat. Nos. 5,707,798, 5,912,132, and 5,955,281.
(§2) R-SAT assays were performed using NIH3T3 cells grown in tissue culture treated rollerbottles to 40-50% confluence. Cells were transfected for 12-16 hours with plasmid DNAs using SUPERFECT (QIAGEN) as per manufacture's protocols. R-SAT's were generally performed with 10 μg/rollerbottle of receptor and 50 μg/rollerbottle of beta-galactosidase plasmid DNA. All receptor and G-protein constructs used were in the PSI Mammalian Expression Vector (PROMEGA). The transfected cells were then trypsinized and frozen in DMEM containing 10% DMSO. Frozen cells were later thawed, plated at 10,000-40,000 cells per well of a 96½ area plate that contained drug. Cells were then grown in a humidified atmosphere with 5% ambient CO2 for five days. Media was then removed from the plates and marker gene activity was measured by the addition of the beta-galactosidase substrate ONPG (in PBS with 5% NP-40). The resulting colorimetric reaction was measured in a spectrophotometric plate reader (Titertek Inc.) at […].

[1] = Stability to oxidation by air during storage; assay type: physicochemical
Description: A pyrazoline scaffold was prepared by the condensation of compound of formula VI of Example 1 with methylhydrazine in the presence of L-InCl3. […] The stereochemistry of the major isomer was confirmed as having an anti-configuration by the strong interaction between […] in the diethylamino chain and by the absence of any NOESY correlation between H4 (3.56 ppm) and H5 (3.98 ppm). […]

SST5 receptor = target: T2, SST5 receptor (Homo sapiens, UniProt P35346); assay: R-SAT functional mammalian cell-based agonist assay, SST5 receptor; settings: transfected NIH3T3 cells; for SST5 Eff.: agonist efficacy; for EC50: agonist, read-out: SST5 pEC50 (converted)
T2 construct: expressed in transfected cells; host or cells: NIH3T3 cells, receptor plasmid in PSI Mammalian Expression Vector (PROMEGA)
T2 sequence (P35346 whole entry): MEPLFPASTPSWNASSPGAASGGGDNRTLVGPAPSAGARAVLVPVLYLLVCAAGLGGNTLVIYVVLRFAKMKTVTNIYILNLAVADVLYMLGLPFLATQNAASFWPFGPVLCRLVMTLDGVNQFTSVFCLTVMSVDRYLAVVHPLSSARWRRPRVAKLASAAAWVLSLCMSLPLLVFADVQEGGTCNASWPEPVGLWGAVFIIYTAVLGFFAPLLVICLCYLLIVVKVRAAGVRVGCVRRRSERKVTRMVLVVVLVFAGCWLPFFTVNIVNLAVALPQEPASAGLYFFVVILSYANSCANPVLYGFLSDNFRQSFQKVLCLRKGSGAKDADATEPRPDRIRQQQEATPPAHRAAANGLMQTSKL
Description: as §1, §2

SMILES | selectivity UII versus SST5 receptor (in words) (UII receptor) | UII Eff. (UII receptor) | UII pEC50 (UII receptor) | agonist activity at the UII receptor (in words) (UII receptor) | stability of the pyrazoline core to oxidation by air [1] | EC50 (UII receptor) | SST5 Eff. (SST5 receptor) | EC50 (SST5 receptor) | melting point
CCN(CC)CCC1C(c2ccccc2)=NN(C)C1c1ccc(Cl)cc1 (mixture of isomers) [III, anti/syn-5-(4-Chloro-phenyl)-4-(2-diethylamino-ethyl)-1-methyl-3-phenyl-4,5-dihydro-1H-pyrazole] | selective UII agonists | 31 | 5.4 | partial to full agonists | stable to oxidation by air during storage |  |  |  | 
CCN(CC)CCC(=Cc1ccc(Cl)cc1)C(=O)c1ccccc1 (mixture of isomers) [Starting material] | activity at both the UII and SST5 receptors | 35 |  | partial to full agonists |  | 1.58 µM | 41 | 6.31 µM | 
CCN(CC)CC[C@@H]1C(c2ccccc2)=Nc2ccccc2S[C@H]1c1ccc(Cl)cc1 (relative stereo) [V, anti-2-(4-Chloro-phenyl)-3-(2-diethylamino-ethyl)-4-phenyl-2,3-dihydro-benzo-[b]-[1,4]-thiazepine] | activity at both the UII and SST5 receptors | 92 |  | partial to full agonists |  | 5.01 µM | 60 | 10 µM | 
CN(C)CCC1(c2ccc(Cl)cc2)Cc2ccccc2C(=O)O1 (stereo not drawn) [AC-7954, reference compound] |  | 120 | 5.7 |  |  |  |  |  | 
CCN(CC)CCc1c(-c2ccccc2)nc(-c2ccccc2)nc1-c1ccc(Cl)cc1 [IV, 4-(4-Chloro-phenyl)-5-(2-diethylamino-ethyl)-2,6-diphenyl-pyrimidine] |  |  |  |  |  |  |  |  | 90.5 to 92.3 °C
CCN(CC)CCC1=C(c2ccccc2)NC(=O)N(C)C1c1ccc(Cl)cc1 (stereo not drawn) [I] | selective UII agonists | 68 |  | partial to full agonists |  | 6.31 µM |  |  | 
